Data as given in US9351983B2, “Use of glycerophosphoinositols for the treatment of septic shock” (CONSIGLIO NAZIONALE DELLE RICERCHE, priority 2012, dated 2016).

Legend:
[1] = tested on: LPS-induced tissue-factor gene expression; test: Real-time RT-PCR of tissue factor mRNA in LPS-stimulated monocytes; format: cell-based, human; settings: 300 μM, 0.1 μg/ml LPS for 24 h (chronic)
Protocol: FIG. 3—The glycerophosphoinositols inhibit LPS-induced tissue-factor gene expression. Freshly isolated human monocytes were incubated at 37° C. for 20 min without or with 300 μM GroPIns or GroPIns4P, and for a further 1.5 h or 24 h in the absence and presence of 0.1 μg/ml LPS. At each time point, the total RNA was extracted from cells by the thiocyanate/caesium chloride method and converted to cDNA. Real-time PCR measurements of tissue factor were performed using validated primers. GAPDH served as the house-keeping gene. Each sample was measured in triplicate and the data were calculated with the delta-delta method (2-DDCT) for comparing relative expression data. Monocytes incubated alone for different times were considered the control sample. Measurements of mRNA levels were expressed as fold-increase over control, and are means (±SD) of triplicates from one experiment that is representative of 4 experiments performed with cells from different donors (*p=0.016; **p=0.0052). […]
One μg total RNA (extracted through thiocyanate/caesium chloride method) was converted to cDNA using Moloney murine leukaemia virus reverse transcriptase (Applied Biosystems, Italy). […] Each sample was measured in triplicate and the data were analysed with the SDS 2.0 software (Applied Biosystems, Italy) by the delta-delta method (2-DDCT) for comparing relative expression results. […]

[2] = tested on: phospholipase A2IVα (PLA2IVα) gene expression; test: In vitro model of human inflammation: real-time PCR of PLA2IVα; format: cell-based; settings: 300 μM; 4 h, 14 h, 24 h, 48 h; effect mainly at 4 h and 14 h; one donor, preliminary
Protocol: FIG. 15—Glycerophosphoinositol modulates the kinetic transcriptional profile of genes involved in the regulation of inflammatory response. Human monocytes were purified from one donor and treated according to the in vitro model of human inflammation, previously described, in absence (blue line) or in presence (red line) of 300 μM glycerophosphoinositol. In detail glycerophosphoinositol was added to cells in culture 20 minutes before LPS, IL-10 and TGF-β, that is, again after each wash. Samples were collected at time 4 h, 14 h, 24 h, 48 h; freshly isolated monocytes have been considered as control at time 0 h. Total RNA was extracted from cells by RNeasy kit (Qiagen) and reverse-transcribed to cDNA (QuantiTect Reverse Transcription kit, Qiagen). […] Each sample was measured in triplicate and data were analyzed with Pfaffl methods for comparing relative expression data. The measurement of mRNA expression was expressed as fold-increase over control (time 0 h). […]
Total RNA was extracted with RNeasy kit (Qiagen) according to the manufacturer's instructions. Both integrity and quality of total RNA were checked by agarose gel electrophoresis and the concentration of each RNA sample was assessed spectrophotometrically. Total RNAs were reverse-transcribed to cDNA (QuantiTect Reverse Transcription kit, Qiagen) with oligo-dT and random primers, according to manufacturer's protocol. […]

Compound	inhibition of LPS-induced tissue factor mRNA levels [1]	PLA2IVα mRNA expression [2]
O=P(O)(OCC(O)CO)OC1C(O)C(O)C(O)C(O)C1O (stereo not drawn) [GroPIns, glycerophosphoinositol]	~60%	hampered the expression
O=P(O)(O)OC1[C@@H](O)[C@H](O)C(OP(=O)(O)OCC(O)CO)[C@@H](O)[C@H]1O (stereo partly drawn) [GroPIns4P, glycerophosphoinositol 4-phosphate]	completely ineffective	
